The format of data set [1] is cell-based, Saccharomyces cerevisiae. The method, then:
Western Blot. […] Cells were harvested by centrifugation. Cells were lysed by vortexing for 5 min in the presence of 200 μl of 0.5-mm diameter acid washed glass beads and 200 μl SUMEB buffer (1% SDS, 8 M urea, 10 mM MOPS pH 6.8, 10 mM EDTA, 0.01% bromophenol blue, 1 mM PMSF) per one OD unit of original culture. Lysates were then incubated at 65° C. for 10 min and cleared by centrifugation prior to electrophoresis and blotting. Antibodies: anti-HA-HRP (REF-12013819001, Clone 3F10, Roche/Millipore Sigma, St. Louis, MO), anti-PGK1 (ab113687, AbCam). Protein concentrations were quantified using ImageJ, with PGK1 protein measured in each strain to normalize protein concentrations across strains. To compare protein concentrations to […]1, these were then normalized to TPL concentration using this equation: ([[…]1 normalized protein concentrations were plotted on a Log 2 scale.

The subject of the next data set is auxin promoter::Venus. As to the kind of experiment: Repression activity of H1 helices fused to IAA3 in the AtARCSc, fluorescence flow cytometry. The class given is cell-based, Saccharomyces cerevisiae. The note with it: for Repression activity of H1-HA-IAA3 library constructs: H1-HA-IAA3 expressed off a plasmid, static ARC components integrated at URA3. On the technique in general: A flow cytometer gives signals particle by particle.

Data set [2] concerns synthetic auxin reporter DR5-Venus. As to the kind of experiment: H1 repression assay, transient transformation in tobacco leaves. The conditions noted are these: transient expression in tobacco, IAA3 EAR motif mutated to AxAxA. The class given is in vivo, Nicotiana benthamiana. As for the experimental part: Reporter activation was measured in four separate leaf injections (biological replicates) in two days of injection (boxplots illustrated in FIG. 5C are pooled data from one day, with two replicates divided on right and left panels). Each leaf was excised at 8 locations and measured for Venus fluorescence using a plate scanner. pDR5:Venus: the synthetic DR5 auxin promoter (Ulmasov et al., Plant Cell 9, 1963-1971, 1997) driving Venus; ARF19: […]; […] Plant growth. […] Strain density was normalized to an OD600 of 1 for each strain in the final mixture of strains before injection into tobacco leaves. Leaves were removed, and eight different regions were excised using a hole punch, placed into a 96-well microtiter plate with 100 μl of water. Each leaf punch was scanned in a 4×4 grid for yellow and red fluorescence using a plate scanner (Tecan Spark, Tecan Trading AG, Switzerland). Fluorescence data was quantified and plotted in R (ggplots2).

A further data set addresses T1, H1 sequence of TBL1 (Homo sapiens, UniProt O60907).
T1 construct: expressed in transfected cells; host or cells: Saccharomyces cerevisiae reporter strain (AFB2, ARF19 and auxin promoter::Venus integrated at URA3)
Put plainly: Small molecule testing on the yeast H1 platform, TBL1 helix fused to IAA3. The class given is cell-based. The conditions noted are these: yeast cultured 4 hours with compound, flow cytometry, absence of Beta-catenin. As for the experimental part: (§1) Yeast were grown overnight from a dilution of […] at 30° C. and 250 rpm. When cell density reached […] either control (DMSO) or small molecule BC2059 were added at the indicated concentration, and cultured for 4 hours before being measured for fluorescence by flow cytometry. Each data point represents three independent time-course flow cytometry experiments of the helices indicated, all fused to IAA3. Every point represents the average fluorescence of at least 10,000 individually measured yeast cells (a.u.: arbitrary units). Error bars are standard error.

Another data set concerns the target T2, TPL sequence (Arabidopsis thaliana, UniProt Q94AI7).
T2 construct: a construct carrying only the first 18 amino acids of Helix 1 of the LisH domain fused to IAA3; expressed in transfected cells; host or cells: Saccharomyces cerevisiae reporter strain (AFB2, ARF19 and auxin promoter::Venus integrated at URA3)
As to the kind of experiment: Small molecule testing on the yeast H1 platform, TPL helix fused to IAA3. The class given is cell-based. The conditions noted are these: yeast cultured 4 hours with compound, flow cytometry. As for the experimental part: as §1

The test system of a further data set is mutant TBL1 H1 sequence. Put plainly: Cancer variant detection using the yeast H1 platform. The class given is cell-based, Homo sapiens (Human). The conditions noted are these: 500 nM, 4 hours, compared with wild type TBL1 H1. The method, then:
as §1, with “of the TBL1 or control helices indicated,” for “of the helices indicated,”
Yeast carrying either the wild type or mutant TBL1 H1 sequence were cultured in the presence or absence of 500 nM Tegatrabetan and fluorescence measured by flow cytometry. […] This approach is particularly relevant to personalized medicine for a given mutation in a patient.

Entries after “also recorded” stand apart in the source; their conditions may differ.

On to “R6N: TPL H1 mutant NELVFLILQFLDE, SEQ ID NO: 94”, for which, in data set [1], the “Protein accumulation / stability” value is reported as “negative effect on protein accumulation”. In addition, the “Repression activity of H1-HA-IAA3 library constructs” value (shortened to “Repression activity”) in the data set on auxin promoter::Venus is on record as “loss of repression”.

Regarding “R854Q: cancer variant H1 KELLLLIQNHLIS, SEQ ID NO: 86”, the “Protein accumulation / stability” value in data set [1] was “slightly increasing protein accumulation”. For the same compound, in the data set with auxin promoter::Venus, the “Repression activity” value is reported as “increase”.

On to “SpHIF2: H1 sequence NQVNYIIWRYLKE, SEQ ID NO: 17 (Schizosaccharomyces pombe)”, for which the “Protein accumulation / stability” value in data set [1] is reported as “very poor protein stability”. Moreover, the “Repression activity” value with auxin promoter::Venus was “not detected”. On to “DmGID8: H1 tested in tobacco; probably H1-DmDMEI, ADLNRLVMNYLVT, SEQ ID NO: 38 (listed as Drosophila sechellia)”, for which the “Repression of reporter in planta” value in data set [2] was “not functional”.

For the compound `C[C@@H]1C[C@H](C)CN(S(=O)(=O)c2ccc3c(c2)C(=NO)c2cc(S(=O)(=O)N4C[C@H](C)C[C@H](C)C4)ccc2C3=NO)C1` [BC2059, Tegavivint], at H1 sequence of TBL1, the “Effect on TBL1's repressive activity on transcription” value is on record as “dose-dependent interference”. In addition, on TPL sequence, the “Effect on TPL H1 repression” value is given as “unaffected”. Further, the “Responsiveness of TBL1 H1 cancer variant mutations to the compound” value in the data set on mutant TBL1 H1 sequence is on record as “Certain cancer mutants were less sensitive to treatment”.

In the case of “R14W: cancer variant H1 DEVNFLVYWYLQE, SEQ ID NO: 83”, in data set [1], the “Protein accumulation / stability” value is on record as “reductions in protein abundance”. The “Repression activity” value in the data set on auxin promoter::Venus is given as “higher repression rates”.

For “1853M: cancer variant H1 KELLLLMRNHLIS, SEQ ID NO: 85”, the “Protein accumulation / stability” value in data set [1] is “slightly increasing protein accumulation”. Further, the “Repression activity” value in the data set with auxin promoter::Venus is on record as “slightly decrease”.

On to “R6E: TPL H1 mutant EELVFLILQFLDE, SEQ ID NO: 91”, for which the “Protein accumulation / stability” value in data set [1] is given as “negative effect on protein accumulation”. Besides, the “Repression activity” value in the data set with auxin promoter::Venus was “loss of repression”.

On to “HsTBL1X Y64C: cancer variant H1 DEVNFLVCRYLQE, SEQ ID NO: 81”, for which, in data set [1], the “Protein accumulation / stability” value is “highest accumulation”. In addition, the “Repression activity” value in the data set with auxin promoter::Venus is on record as “strongest repressor”. In the same order, the values of “HsLIS1: H1 sequence DELNRAIADYLRS, SEQ ID NO: 63 (listed as Homo sapiens)” are “well expressed” and “repressive”.

Turning to “F10A: TPL H1 mutant RELVALILQFLDE, SEQ ID NO: 121”, the “Repression of reporter in planta” value in data set [2] is recorded as “improvements in repression in tobacco compared to wild type”. For the same compound, in the data set on auxin promoter::Venus (AtARCSc in yeast, auxin (IAA-10 μM) added), the “Time course flow cytometry following auxin addition (de-repression)” value was “strengthened the durability of repression H1, converting it into an auxin-insensitive repression domain; also recorded: loss of auxin sensitivity”. With “L851F: cancer variant H1 KELLFLIRNHLIS, SEQ ID NO: 84”, in data set [1], the “Protein accumulation / stability” value is recorded as “dramatically reduces”. In the data set on auxin promoter::Venus, the “Repression activity” value was “dramatically reduces”. For “H856Y: cancer variant H1 KELLLLIRNYLIS, SEQ ID NO: 87”, the “Protein accumulation / stability” value in data set [1] is on record as “not significantly affected”. Besides, the “Repression activity” value with auxin promoter::Venus is reported as “not significantly affected”.

As to “R6V: TPL H1 mutant VELVFLILQFLDE, SEQ ID NO: 106”, the “Protein accumulation / stability” value in data set [1] is on record as “negative effect on protein accumulation”. In the data set on auxin promoter::Venus, the “Repression activity” value is “loss of repression”.

With “PfGID8: H1 tested in tobacco; perhaps H1-BCR36DRAFT, KDLNKLIMNYLVI, SEQ ID NO: 36 (listed as Chytriomyces confervae)”, in data set [2], the “Repression of reporter in planta” value was “less”. As to “R65Q: cancer variant H1 DEVNFLVYQYLQE, SEQ ID NO: 82”, in data set [1], the “Protein accumulation / stability” value is on record as “reductions in protein abundance”. In addition, the “Repression activity” value in the data set on auxin promoter::Venus is “higher repression rates”.

The record behind these values is patent publication US20250313828A1, “SYNTHETIC GENETIC PLATFORM IN EUKARYOTE CELLS AND METHODS OF USE” (University of Washington, priority 2022, published 2025).
